Assay: Hydroxyapatite assay (hydroxyapatite adsorption chromatography, bone-targeting potential)
Format: physicochemical
Conditions: corrected K=(retention time-void time)/void; TSK-Gel HA 1000 HPLC column; linear gradient 10 mM to 500 mM sodium phosphate, 0.15 N NaCl, pH 6.8
Protocol: Hydroxyapatite is the principal mineral component of bone. Hydroxyapatite adsorption chromatography is used as an assay to evaluate the bone-targeting potential of both individual bone-targeting moieties (“monomers”) and of pharmaceuticals incorporating bone-targeting groups.
Method: The rentention time of a test compound is measured using a linear gradient from 10 mM sodium phosphate, 0.15 N NaCl, pH=6.8 to 500 mM sodium phosphate, 0.15 N NaCl, […] on a TSK-Gel HA 1000 high pressure liquid chromatography column (7.5 mm×75 mm). The rentention time of the compound is expressed in terms of K=(retention time-void time)/void. This K value is corrected using two reference compounds to correct from inter-column and inter-system variation to obtain a K′ value.
Reference Compounds: K′ values were determined for known bone targeted compounds, the bisphosphonate, alendronate and tetracycline.

K′ value: 3.7
SMILES: NCCCC(O)(P(=O)(O)O)P(=O)(O)O [Alendronate, alendronate]

From patent US20040002479A1, “Peptide analogues and uses thereof” (priority 2002, published 2004)
